# Where two headings read alike, the source gives them in different places.
# Key:
# uptake of tritiated 5-HT [1] = assay: Inhibition of the uptake of tritiated 5-HT in vitro (midbrain slices); format: biochemical, mice; conditions: for Inhibition (50 %) of uptake in vitro, 5-HT: 5-hydroxytryptamine 10^-7 M
# Procedure: (§1) 1. Inhibition of the uptake of tritiated 5-HT in vitro and in vivo
# […] out and sliced and incubated in a mixture consisting of, per 100 mg of brain slices, […] 2 ml of Krebs-Henseleit buffer, pH 7.4. The incubation time was 5 minutes with 5 minutes of preincubation before ^3 H-5-HT was added. The radioactive ^3 H-5-HT taken up in the slices was extracted with ethanol and the amount was determined by liquid scintillation. […] Active uptake is defined as that part of the radioactive uptake which is inhibited by a high concentration of cocaine. All doses were given at least to four animals.
# [2] = tested on: uptake of tritiated noradrenaline; assay: Inhibition of the uptake of tritiated noradrenaline in vitro (cortex slices); format: biochemical; conditions: for Inhibition (50 %) of uptake in vitro, NA: dl-noradrenaline 10^-7 M
# Procedure: (§2) 2. Inhibition of the uptake of tritiated noradrenaline in vitro and in vivo
# (§3) The method is found in European Journal of Pharmacology 2 (1967), 181- 186. The animals were killed half or one hour after the administration of the drugs in vivo (i.p.). The slices, made from cortex, were preincubated for five minutes and incubated with 0.1 μmole per ml of ^3 H-noradrenaline for further five minutes. The incubation mixture consisted of 0.2 μmole of ^3 H-NA and the brain slices in 2 ml of Krebs-Henseleits buffer, pH 7.4. The radioactive ^3 H-NA taken up in the slices was extracted with ethanol and the amount was determined by liquid scintillation. The dose producing 50 percent decrease of the active uptake (ED50) was determined graphically from dose response curves. At least four animals were used at each dose level.
# Inhibition (50 %) of uptake
# ^2) Na = dl-noradrenaline 10^-7 M
# uptake of tritiated 5-HT [3] = assay: Inhibition of the uptake of tritiated 5-HT in vivo (drug i.p., uptake in midbrain slices); design: species or system mice; conditions: for ED50: Mus musculus, ip, 0.5 h, read-out: Inhibition (50 %) of uptake in vivo, 5-HT (ED50), i.p., half an hour before the animals were killed
# Procedure: as §1
# The drugs were administered intraperitoneally half an hour before the animals were killed and the midbrain was taken out and sliced and incubated in a mixture consisting of, per 100 mg of brain slices, 0.2 μmole of ^3 H-5-HT and 1 μmole of glucose in 2 ml of Krebs-Henseleit buffer, pH 7.4. The incubation time was 5 minutes with 5 minutes of preincubation before ^3 H-5-HT was added. The radioactive ^3 H-5-HT taken up in the slices was extracted with ethanol and the amount was determined by liquid scintillation. […] Active uptake is defined as that part of the radioactive uptake which is inhibited by a high concentration of cocaine. All doses were given at least to four animals.
# [4] = tested on: uptake of tritiated noradrenaline; assay: Inhibition of the uptake of tritiated noradrenaline in vivo (drug i.p., uptake in cortex slices); conditions: for ED50: ip, 1 h, read-out: Inhibition (50 %) of uptake in vivo, NA (ED50), i.p., half or one hour before the animals were killed; for selectivity towards noradrenaline: uptake inhibition, compared with imipramine
# Procedure: as §2
# as §3, with “The” for “The method is found in European Journal of Pharmacology 2 (1967), 181- 186. The”
# 5-HTP response = 5-HTP response potentiation test; format: in vivo, mice; conditions: for 5-HTP potentiation, 25 mg/kg i.p., 1h: drug 1 h before 5-HTP; for 5-HTP potentiation, 25 mg/kg i.p., 1h / 5-HTP potentiation, 25 mg/kg i.p., 4h: 0 = without effect; for 5-HTP potentiation, 25 mg/kg i.p., 4h: drug 4 h before 5-HTP
# Procedure: 1. 5-HTP response potentiation test
# Inhibition of the uptake of 5-HT potentiates the effects of administered 5-hydroxytryptophane (5-HTP) probably by increasing the amount of 5-HT at the receptor.
# These small movements are quantitatively measured in an activity box, type Animex, which can distinguish between small and gross movements. The activity is measured during 20 minutes and only in the case the animals have a fullblown syndrome.
# Dopa response = Dopa response potentiation test; format: in vivo, mice; conditions: for L-DOPA potentiation, 10 mg/kg i.p., 1h / L-DOPA potentiation, 10 mg/kg i.p., 4h: score, pargyline pretreated; for L-DOPA potentiation, 10 mg/kg i.p., 1h: drug 1 h before 1-Dopa 100 mg/kg i.p.; for L-DOPA potentiation, 10 mg/kg i.p., 4h: drug 4 h before 1-Dopa 100 mg/kg i.p.
# mice [5] = assay: Motor activity in mice (exploratory activity, locomotion cage); format: in vivo; conditions: Mus musculus, ip, 1 h, read-out: Motor activity ID50
# Procedure: The exploratory activity of mice was recorded in a locomotion cage in which the movements were counted each time the animals cross-circuit an electrical current in the bottom plate. The activity was recorded for ten minutes one hour after the administration of the drug. The animals were tested individually. Groups of six mice were used and the mice were only used once. The activity was expressed in percent of the activity of control groups ran simultaneously.
# mice [6] = assay: Anticholinergic effect (mydriasis) in mice; format: in vivo
# Procedure: (§4) Acute toxicity, behavior and anticholinergic effect (mydriasis) in mice
# (§5) The compounds were given by intravenous route to 3 mice. […] Seizures, gait, sedation and grip strength were recorded. […] PD200 is the dose which increases the pupil by 200%.
# [7] = first observable after; cited from earlier work
# Acute toxicity in mice = conditions: mouse, in vivo, iv, within 24 hours
# Procedure: as §4, §5
# [8] = Drug induced arrhythmia in rats: ECG changes and LD50; format: in vivo; conditions: in vivo, iv; i.v. infusion, rat, stepwise increased doses
# Text: (§6) Drug Induced Arrhythmia in Rats: ECG changes and LD50
# (§7) Rats were infused intravenously with test drugs and relevant reference compounds. The doses are increased stepwise. The first dose causing ECG changes of any type was noted, and thereafter the doses were increased up to the lethal dose.
# rats = assay: as above; format: in vivo
# Text: as §6, §7
# uptake of tritiated 5-HT [9] = assay: Inhibition of the uptake of tritiated 5-HT in vivo (drug i.p., uptake in midbrain slices); design: species or system mice; conditions: for time of maximal uptake inhibition: uptake inhibition increases with time; for duration of inhibition of the uptake mechanism compared with imipramine: uptake of 5-HT and noradrenaline
# [10] = i.p., one hour after administration
compound,measurement,setting,value
"CN(C)CCCN1c2ccccc2CCc2ccccc21 [Imipramine, imipramine, reference compound]","Inhibition (50 %) of uptake in vitro, 5-HT",uptake of tritiated 5-HT [1],0.10 µg/mL
same,"Inhibition (50 %) of uptake in vitro, NA",[2],0.06 µg/mL
same,ED50,uptake of tritiated 5-HT [3],24 mg/kg
same,ED50,[4],6 mg/kg
same,"potentiation of dl-5-HTP by reference, in words",5-HTP response; control group,constantly potentiated dl-5-HTP
same,"5-HTP potentiation, 25 mg/kg i.p., 1h",5-HTP response,25
same,"5-HTP potentiation, 25 mg/kg i.p., 4h",5-HTP response,0
same,"L-DOPA potentiation, 10 mg/kg i.p., 1h",Dopa response,2
same,"L-DOPA potentiation, 10 mg/kg i.p., 4h",Dopa response,1
same,ED50,mice [5],45 mg/kg
same,Mydriasis PD200,"mice [6]; i.v., 10 minutes after injection, dose which increases the pupil by 200%",13 mg/kg
same,onset of antidepressive effect,[7],3 weeks
"NC1CCC(c2ccccc2)(c2ccccc2)C1 (stereo not shown) [PUB 105, 1-Amino-3,3-diphenylcyclopentane]","Inhibition (50 %) of uptake in vitro, 5-HT",uptake of tritiated 5-HT [1],0.18 µg/mL
same,"inhibition of uptake of 5-hydroxytryptamine in vitro, in words",uptake of tritiated 5-HT [1],potent inhibitors
same,"Inhibition (50 %) of uptake in vitro, NA",[2],0.15 µg/mL
same,"inhibition of uptake of noradrenaline in vitro, in words",[2],potent inhibitors
same,ED50,uptake of tritiated 5-HT [3],10 to 20 mg/kg
same,"inhibition of uptake of 5-hydroxytryptamine in vivo, in words",uptake of tritiated 5-HT [3],strong inhibition
same,"inhibition of uptake of noradrenaline in vivo, in words",[4],strong inhibition
same,ED50,[4],20 mg/kg
same,selectivity towards noradrenaline,[4],substantially nonselective ability towards noradrenaline
same,"5-HTP potentiation, 25 mg/kg i.p., 1h",5-HTP response,12.5
same,"5-HTP potentiation, 25 mg/kg i.p., 4h",5-HTP response,25
same,"L-DOPA potentiation, 10 mg/kg i.p., 1h",Dopa response,3
same,"L-DOPA potentiation, 10 mg/kg i.p., 4h",Dopa response,3
same,ED50,mice [5]; [10],> 50 mg/kg
same,Mydriasis PD200,"mice [6]; mouse, in vivo, iv, 10 min",19 mg/kg
same,LD50 at 24 h,Acute toxicity in mice,22 mg/kg
same,LD50,[8],58 mg/kg
same,ECG changes i.v. rat (first dose causing ECG changes of any type),rats; i.v. infusion,14
same,dose causing ECG changes relative to that of imipramine,"rats; i.v., rat",3 times
same,uptake inhibition still pronounced after,uptake of tritiated 5-HT [9],16 h
same,time of maximal uptake inhibition,uptake of tritiated 5-HT [9],four
same,duration of inhibition of the uptake mechanism compared with imipramine,uptake of tritiated 5-HT [9],much longer time than does the reference substance imipramine
"NC1CCC(c2ccccc2)(c2ccc(Cl)cc2)C1 (stereo not shown) [PUN 122, 1-amino-3-(4-chlorophenyl)-3-phenylcyclopentane]","Inhibition (50 %) of uptake in vitro, 5-HT",uptake of tritiated 5-HT [1],0.7 µg/mL
same,"inhibition of uptake of 5-hydroxytryptamine in vitro, in words",uptake of tritiated 5-HT [1],potent inhibitors
same,"Inhibition (50 %) of uptake in vitro, NA",[2],0.3 µg/mL
same,"inhibition of uptake of noradrenaline in vitro, in words",[2],potent inhibitors
same,ED50,uptake of tritiated 5-HT [3],20 mg/kg
same,"inhibition of uptake of 5-hydroxytryptamine in vivo, in words",uptake of tritiated 5-HT [3],strong inhibition
same,"inhibition of uptake of noradrenaline in vivo, in words",[4],strong inhibition
same,ED50,[4],30 mg/kg
same,selectivity towards noradrenaline,[4],substantially nonselective ability towards noradrenaline
same,"5-HTP potentiation, 25 mg/kg i.p., 1h",5-HTP response,25
same,"L-DOPA potentiation, 10 mg/kg i.p., 1h",Dopa response,3
same,"L-DOPA potentiation, 10 mg/kg i.p., 4h",Dopa response,3
same,ED50,mice [5]; [10],> 50 mg/kg
same,Mydriasis PD200,"mice [6]; mouse, in vivo, iv, 10 min",> 12.5 mg/kg
same,LD50 at 24 h,Acute toxicity in mice,15 mg/kg
same,uptake inhibition still pronounced after,uptake of tritiated 5-HT [9],16 h
same,time of maximal uptake inhibition,uptake of tritiated 5-HT [9],four
same,duration of inhibition of the uptake mechanism compared with imipramine,uptake of tritiated 5-HT [9],much longer time than does the reference substance imipramine
"NC1CCC(c2ccc(Cl)cc2)(c2ccc(Cl)cc2)C1 (stereo not shown) [PUT 108, 1-amino-3,3-di(4-chlorophenyl)cyclopentane]","Inhibition (50 %) of uptake in vitro, 5-HT",uptake of tritiated 5-HT [1],1 µg/mL
same,"Inhibition (50 %) of uptake in vitro, NA",[2],2.5 µg/mL
same,ED50,uptake of tritiated 5-HT [3],> 40 mg/kg
same,ED50,[4],> 40 mg/kg
same,"5-HTP potentiation, 25 mg/kg i.p., 1h",5-HTP response,> 25
same,"L-DOPA potentiation, entry given as a bound (no score)","Dopa response; printed in the 1h column, head 10 mg/kg i.p.",> 10
same,ED50,mice [5]; [10],> 50 mg/kg
same,Mydriasis PD200,"mice [6]; mouse, in vivo, iv, 10 min",> 23 mg/kg
same,LD50 at 24 h,Acute toxicity in mice,23 mg/kg

# — patent publication US4141993A, “Compounds of diphenylcyclopentylamine type and methods for their preparation” (priority 1971, dated 1979)
